Measurements as given in US20080118436A1, “Pathological Animal Model For Non-Alcoholic Fatty Hepatitis” (priority 2004, published 2008).
Where a name gives a salt, the structure may show the parent alone.

Columns and labels:
C57BL/6J male mice [1] = test: Intraperitoneal administration of tetracycline hydrochloride for 10 days to mice fed with HFD for 8 weeks (Example 1); format: in vivo
From the text: (§1) In the following Examples and Comparative examples, as an animal for producing a pathologic model animal, C57BL/6J male mice (Nippon CLEA, Inc.) were used. Further, as a high-fat diet (hereinafter referred to as “HFD”), D12492 (fat content: 60 kcal%) (Research Diet Inc.) was used. As a control diet, CE-2 (Nippon CLEA, Inc.) to be used for normal rearing of mice was used. As a tetracycline antibiotic, tetracycline hydrochloride (Sigma Inc.) was used. The administration of tetracycline hydrochloride was carried out by injection of a solution of 0, 10, 30 or 100 mg/10 mL of tetracycline hydrochloride prepared with a 0.5% physiological saline solution. Here, the “solution of 0 mg/10 mL of tetracycline hydrochloride” means a 0.5% physiological saline solution.
29 mice (6 weeks of age) were divided into a group of 15 mice fed with HFD (hereinafter referred to as an “HFD group”) and a group of 14 mice fed with a control diet (hereinafter referred to as a “control group”). The following experiments related to the HFD group (15 mice) and the control group (14 mice) were assigned to Example 1 and Comparative example 1, respectively.
Feeding of HFD or control diet and intraperitoneal administration of tetracycline hydrochloride First, the mice in the HFD group and the control group were fed ad libitum with HFD and the control diet for 8 weeks, respectively. Then, the mice in the HFD group and the control group were divided into 3 groups, respectively, in such a manner that the body weight and the body fat percentage were equal in the respective groups, thereby to form 3 groups in the HFD group (5 mice×3 groups), and 3 groups in the control group (5 mice×2 groups and 4 mice×1 group). Then, tetracycline hydrochloride was intraperitoneally administered to both the HFD group and the control group at a dose of 0, 10 and 30 mg/kg/day for 10 days (hereinafter, the groups administered with tetracycline hydrochloride at a dose of 0, 10 and 30 mg/kg/day are referred to as “TC 0 group”, “TC 10 group” and “TC 30 group”, respectively). The mice were fed ad libitum with HFD or the control diet also during the period of administering tetracycline hydrochloride.
The body weight of mice was measured on 4 days before initiation of administration of tetracycline hydrochloride and on day 1, 3, 5, 7, 10 and 11 after initiation of administration thereof. FIG. 1 is a line graph showing the change in the body weight of mice intraperitoneally administered with tetracycline hydrochloride for 10 days after feeding them with HFD or the control diet for 8 weeks. […] Incidentally, in FIG. 1, the term “days” represents the number of days elapsed after initiation of administration of tetracycline hydrochloride.
On the next day after completion of administration of tetracycline hydrochloride (on day 11 after initiation of administration), the mice were anesthetized by isoflurane inhalation. After it was Confirmed that the mice lost pain sensation by pinching the tail with forceps, the mice underwent laparotomy and the blood was collected from the abdominal vena cava with a syringe containing heparin. The collected blood was centrifuged at 4° C. for 10 minutes at 7500 rpm thereby to separate plasma. The obtained plasma was cryopreserved. […]
By using the cryopreserved plasma, the plasma ALT level, plasma AST level and plasma glucose level were measured using Hitachi autoanalyzer 7070 (Hitachi Hi Technologies), and the plasma insulin level was measured using an insulin assay kit (Seikagaku Corporation). […]

C57BL/6J male mice [2] = test: Subcutaneous administration of tetracycline hydrochloride for 10 days to mice fed with HFD for 8 weeks (Example 2); format: in vivo; conditions: for histopathological test of liver: mouse, in vivo, sc
From the text: as §1
20 mice (7 weeks of age) were fed ad libitum with HFD for 8 weeks. Then, the mice were divided into 4 groups (5 mice×4 groups) in such a manner that the body weight and the body fat percentage were equal in the respective groups, and subcutaneously administered with tetracycline hydrochloride at a dose of 0, 30, 60 and 100 mg/kg/day for 10 days (hereinafter, the groups administered with tetracycline hydrochloride at a dose of 0, 30, 60 and 100 mg/kg/day are referred to as “TC 0 group”, “TC 30 group”, “TC 60 group” and “TC 100 group”, respectively). The mice were fed ad libitum with HFD also during the period of administering tetracycline hydrochloride.
The body weight of mice was measured on 3 days before initiation of administration of tetracycline hydrochloride and everyday from the next day until day 11 after initiation of administration thereof. FIG. 12 is a line graph showing the change in the body weight of mice subcutaneously administered with tetracycline hydrochloride for 10 days after feeding them with HFD for 8 weeks. […] Incidentally, in FIG. 12, the term “days” represents the number of days elapsed after initiation of administration of tetracycline hydrochloride.
Blood collection and dissection were carried out in the same manner as in Example 1.
The plasma ALT level, plasma AST level, plasma insulin level and plasma glucose level were measured in the same manner as in Example 1. FIG. 13 is a bar graph showing the plasma ALT level in mice subcutaneously administered with tetracycline hydrochloride for 10 days after feeding them with HFD for 8 weeks. FIG. 14 is a bar graph showing the plasma AST level in mice subcutaneously administered with tetracycline hydrochloride for 10 days after feeding them with HFD for 8 weeks. […] FIG. 15 is a bar graph showing the plasma insulin level in mice subcutaneously administered with tetracycline hydrochloride for 10 days after feeding them with HFD for 8 weeks. […] FIG. 16 is a bar graph showing the plasma glucose level in mice subcutaneously administered with tetracycline hydrochloride for 10 days after feeding them with HFD for 8 weeks.
The hepatic TG level was measured in the same manner as in Example 1. FIG. 17 is a bar graph showing the hepatic TG level in mice subcutaneously administered with tetracycline hydrochloride for 10 days after feeding them with HFD for 8 weeks.
Measurement of Hepatic TNF-α mRNA level and hepatic IL-1β mRNA level The hepatic TNF-α mRNA level and hepatic IL-1β mRNA level were measured in the same manner as in Example 1. FIG. 18 is a bar graph showing the hepatic TNF-α mRNA level in mice subcutaneously administered with tetracycline hydrochloride for 10 days after feeding them with HFD for 8 weeks. FIG. 19 is a bar graph showing the hepatic IL-1β mRNA level in mice subcutaneously administered with tetracycline hydrochloride for 10 days after feeding them with HFD for 8 weeks.
A histopathological test of liver was carried out in the same manner as in Example 1.

[3] = HFD 8 weeks, i.p. 30 mg/kg/day for 10 days, vs normal mice
[4] = HFD group (i.p. 0, 10, 30 mg/kg/day for 10 days), vs normal mice
[5] = HFD 8 weeks, s.c. 30 mg/kg/day for 10 days, vs normal mice
[6] = HFD 8 weeks, s.c. 60 mg/kg/day for 10 days, vs normal mice
[7] = HFD 8 weeks, s.c. 100 mg/kg/day for 10 days, vs normal mice

For `CN(C)[C@@H]1C(O)=C(C(N)=O)C(=O)[C@@]2(O)C(O)=C3C(=O)c4c(O)cccc4[C@@](C)(O)[C@H]3C[C@@H]12` [tetracycline hydrochloride], the “plasma ALT level” value (C57BL/6J male mice [1]; [3]) was “significantly higher”, the “plasma AST level” value (C57BL/6J male mice [1]; [3]) was “significantly higher” and the plasma glucose level (C57BL/6J male mice [1]; [4]) was “equivalent to or higher”. The plasma insulin level (C57BL/6J male mice [1]; [4]) was “equivalent to or higher”, the “histopathological test of liver” value (C57BL/6J male mice [1]; mouse, in vivo, ip, 30 mg/kg/day) was “presence of fatty liver and the invasion of inflammatory cells were observed” and the “plasma ALT level” value (C57BL/6J male mice [2]; [5]) was “significantly higher”. The “plasma AST level” value (C57BL/6J male mice [2]; [5]) was “significantly higher”, the plasma insulin level (C57BL/6J male mice [2]; [5]) was “higher” and the “plasma ALT level” value (C57BL/6J male mice [2]; [6]) was “significantly higher”. For the same compound, the “plasma AST level” value (C57BL/6J male mice [2]; [6]) was “significantly higher”, the plasma insulin level (C57BL/6J male mice [2]; [6]) was “higher” and the “plasma ALT level” value (C57BL/6J male mice [2]; [7]) was “significantly higher”. The “plasma AST level” value (C57BL/6J male mice [2]; [7]) was “significantly higher”, the plasma insulin level (C57BL/6J male mice [2]; [7]) was “equivalent” and the plasma glucose level (C57BL/6J male mice [2]; HFD 8 weeks, s.c. any group (0, 30, 60, 100 mg/kg/day) for 10 days, vs normal mice) was “higher”. For the same compound, the “histopathological test of liver” value (C57BL/6J male mice [2]; 30 mg/kg/day) was “presence of fatty liver and the invasion of inflammatory cells were observed”, the “histopathological test of liver” value (C57BL/6J male mice [2]; 60 mg/kg/day) was “presence of fatty liver and the invasion of inflammatory cells were observed” and the “histopathological test of liver” value (C57BL/6J male mice [2]; 100 mg/kg/day) was “presence of fatty liver and the invasion of inflammatory cells were observed”.
